# Measured values taken from US6872724B2, “Polymorphs with tyrosine kinase activity” (Merck & Co., Inc., priority 2002, dated 2005).
# Biological target: T1, human KDR (Homo sapiens, UniProt P35968)
# T1 construct: cloning the cytoplasmic domain of the KDR kinase as an in frame fusion at the carboxy terminus of the GST gene; made in house; host or cells: Spodoptera frugiperda (Sf21) insect cells, baculovirus vector pAcG2T
# Assay: VEGF receptor kinase assay
# Format: biochemical
# Method: I. VEGF Receptor Kinase Assay
# VEGF receptor kinase activity is measured by incorporation of radio-labeled phosphate into polyglutamic acid, tyrosine, 4:1 (pEY) substrate. The phosphorylated pEY product is trapped onto a filter membrane and the incorporation of radio-labeled phosphate quantified by scintillation counting.
# VEGF Receptor Kinase The intracellular tyrosine kinase domains of human KDR (Terman, B. I. et al. Oncogene (1991) vol. 6, pp. 1677-1683.) and Flt-1 (Shibuya, M. et al. Oncogene (1990) vol. 5, pp. 519-524) were cloned as glutathione S-transferase (GST) gene fusion proteins. This was accomplished by cloning the cytoplasmic domain of the KDR kinase as an in frame fusion at the carboxy terminus of the GST gene. Soluble recombinant GST-kinase domain fusion proteins were expressed in Spodoptera frugiperda (Sf21) insect cells (Invitrogen) using a baculovirus expression vector (pAcG2T, Pharmingen). […]
# T1 sequence (P35968 786-1356 limits assumed): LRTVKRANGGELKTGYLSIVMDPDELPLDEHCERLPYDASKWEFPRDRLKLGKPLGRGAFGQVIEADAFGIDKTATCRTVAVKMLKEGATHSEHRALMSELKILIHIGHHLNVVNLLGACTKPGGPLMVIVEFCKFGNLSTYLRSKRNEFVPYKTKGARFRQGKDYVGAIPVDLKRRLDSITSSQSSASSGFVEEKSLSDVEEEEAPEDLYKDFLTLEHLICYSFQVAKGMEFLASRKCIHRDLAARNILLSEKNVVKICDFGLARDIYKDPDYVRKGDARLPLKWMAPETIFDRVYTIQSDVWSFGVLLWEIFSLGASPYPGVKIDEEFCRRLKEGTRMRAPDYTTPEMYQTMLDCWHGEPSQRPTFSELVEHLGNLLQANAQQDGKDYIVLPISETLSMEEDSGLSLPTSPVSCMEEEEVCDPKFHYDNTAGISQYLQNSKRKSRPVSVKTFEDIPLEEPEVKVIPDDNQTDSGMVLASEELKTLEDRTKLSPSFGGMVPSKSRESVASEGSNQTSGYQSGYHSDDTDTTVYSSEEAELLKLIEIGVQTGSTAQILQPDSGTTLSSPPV
structure (smiles),measurement,value
"CNC(=O)N1CCN(Cc2ccnc(Nc3ncc(C#N)s3)c2)CC1 [Compound 4-4, 4-[2-(5-cyano-thiazol-2-ylamino)-pyridin-4-ylmethyl]-piperazine-1-carboxylic acid methylamide]",kinase inhibitory activity,inhibits the kinase KDR
